Measured values published in patent US8168801B2, “Imidazolium-type ionic oligomers” (The Royal Institution for the Advancement of …, priority 2007, dated 2012).
Counter-ions that a name gives are not always drawn.

Assays:
[1] = Thermal stability by thermogravimetric analysis (TGA); type: physicochemical; conditions: 25° C. to 550° C. at 20° C./min under nitrogen, then air to 700° C., platinum pan
Method: The thermal stability of the imidazolium-type ionic oligomers was measured by thermogravimetric analysis (TGA).^42 The onset decomposing temperatures (ODTs) and residue percentages (RPs) are summarized hereinbelow in Table 1.
General: All reagents were commercially obtained from Aldrich Chemical Co. and were used without further purification unless otherwise noted. Solvents were of reagent grade and, if necessary, were dried by standard procedures. ^1H NMR, ^13C NMR and COSY NMR spectra were acquired using Varian Mercury 300 MHz, 400 MHz and Unity 500 MHz spectrometers respectively, equipped with Sun workstations. The proton chemical shifts were reported in parts per million on the δ scale, referenced to the residual proton resonance in CDCl3 (δ 7.24 ppm) or D2O (δ 4.67 ppm). The carbon chemical shifts were reported in parts per million on the δ scale, internally referenced to the solvent resonance in CDCl3 (δ 77.0 ppm). The proton and carbon assignments were made by standard gCOSY experiments. Melting points were taken using a standard melting point apparatus without correcting the thermometer. High resolution mass spectrometric analyses were performed on a VG Micromass ZAB 2F HS (FAB) or a Microm as Quattro II triple quadrupole mass spectrometer (Manchester, UK) equipped with an electrospray ionization source (ESI). Typically only the ion corresponding to the cation (C) component was analyzed. Thermogravimetric analysis (TGA) measurements were performed on a TGA Q500 from TA instruments. The running method used was ramped from 25° C. to 550° C., 20° C./min, under nitrogen, switching to air and then ramped at 20° C./min to 700° C. The type of pan used was platinum. High-pressure liquid chromatography (HPLC) analyses were performed using a reverse phase C18 column (Agilent Zorbax Extend-C18). The elution was performed using a linear gradient from 50% to 100% of B in A over 20 min, followed by a linear gradient elution from 100% to 50% of B in A over 10 min, where A is H2O/0.05% TFA (v/v) and B is CH3CN/0.05% TFA (v/v), at a flow rate of 0.8 mL/min. The eluted compounds were detected by UV absorbance at 210 nm. […]

[2] = Moisture affinity (absorption of moisture from the atmosphere); type: physicochemical

melting point [°C]	Onset decomposing temperature (ODT) [1] [°C]	Residue percentage (RP) [1] [%]	Compound	Absorption of moisture from the atmosphere [2]
96 to 98	–	–	Cc1n(C)cc[n+]1CCCBr (as salt: bromide) [Compound 2]	–
159 to 161	–	–	Cc1nccn1CCC[n+]1ccn(C)c1C (as salt: bromide) [Compound 3]	–
201 to 203	–	–	Cc1n(C)cc[n+]1CCCn1cc[n+](CCCBr)c1C (as salt: bromide) [Compound 9]	–
120 to 122	–	–	Cc1nccn1CCC[n+]1ccn(C)c1C (as salt: triflate) [Compound 4]	–
76 to 78	–	–	Cc1n(C)cc[n+]1CCCn1cc[n+](CCCBr)c1C (as salt: triflate) [Compound 5]	–
84 to 86	–	–	Cc1n(C)cc[n+]1CCCn1cc[n+](CCCBr)c1C (as salt: triflate) [Compound 10]	–
–	80.6	0.18	Cc1nccn1C [Compound 1, 1,2-dimethylimidazole, reference compound]	–
–	215.8	0.10	Cc1n(C)cc[n+]1CCCBr [Compound 2]	–
–	287.8	1.53	Cc1nccn1CCC[n+]1ccn(C)c1C [Compound 3]	significantly slower rate than compound 2
–	293.9	1.71	Cc1nccn1CCC[n+]1ccn(C)c1C [Compound 4]	significantly slower rate than compound 2
–	239.4	0.59	Cc1n(C)cc[n+]1CCCn1cc[n+](CCCBr)c1C [Compound 5]	–
121 to 123	329.6	1.38	Cc1nccn1CCC[n+]1ccn(CCC[n+]2ccn(C)c2C)c1C [Compound 6]	did substantially not absorb moisture
–	212.2	1.89	Cc1n(C)cc[n+]1CCCn1cc[n+](CCCBr)c1C [Compound 9]	–
–	277.8	0.50	Cc1n(C)cc[n+]1CCCn1cc[n+](CCCBr)c1C [Compound 10]	–
107 to 109	326.2	1.76	Cc1nccn1CCC[n+]1ccn(CCC[n+]2ccn(C)c2C)c1C [Compound 11]	did substantially not absorb moisture
